The target of assay [1] is T1, CK2α’ (full-length, NanoLuc fusion) (Homo sapiens, UniProt P19784). Kind of assay: cell-based. More on the design: species or system HEK293T.
The target of assay [2] is T2, CK2α (full-length, NanoLuc fusion) (Homo sapiens, UniProt P68400). Kind of assay: cell-based. More on the design: species or system HEK293T.
The target of assay [3] is T1, CK2α’ (full-length, NanoLuc fusion). Kind of assay: NanoBRET tracer displacement, intact HEK293T. Conditions: intact cells, […] h, […] °C, tracer competition. Format: cell-based. In general terms: BRET reads energy transfer from a luciferase to a nearby fluorophore.
In assay [4] the target is T2, CK2α (full-length, NanoLuc fusion). Kind of assay: NanoBRET tracer displacement, intact HEK293T. It is filed as cell-based. Conditions: intact cells, […] h, […] °C, tracer competition.

T1 sequence (P19784 whole entry, the tested form may be a part): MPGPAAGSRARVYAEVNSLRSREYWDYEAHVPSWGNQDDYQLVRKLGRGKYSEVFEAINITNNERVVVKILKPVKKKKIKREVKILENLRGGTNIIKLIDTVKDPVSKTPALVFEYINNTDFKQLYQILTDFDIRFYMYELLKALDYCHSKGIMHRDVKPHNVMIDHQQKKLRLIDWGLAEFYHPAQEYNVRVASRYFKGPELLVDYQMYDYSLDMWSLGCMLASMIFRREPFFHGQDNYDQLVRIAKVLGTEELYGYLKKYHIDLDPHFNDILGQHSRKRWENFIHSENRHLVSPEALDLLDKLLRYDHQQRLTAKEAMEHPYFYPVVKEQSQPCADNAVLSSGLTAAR
T2 sequence (P68400 whole entry, the tested form may be a part): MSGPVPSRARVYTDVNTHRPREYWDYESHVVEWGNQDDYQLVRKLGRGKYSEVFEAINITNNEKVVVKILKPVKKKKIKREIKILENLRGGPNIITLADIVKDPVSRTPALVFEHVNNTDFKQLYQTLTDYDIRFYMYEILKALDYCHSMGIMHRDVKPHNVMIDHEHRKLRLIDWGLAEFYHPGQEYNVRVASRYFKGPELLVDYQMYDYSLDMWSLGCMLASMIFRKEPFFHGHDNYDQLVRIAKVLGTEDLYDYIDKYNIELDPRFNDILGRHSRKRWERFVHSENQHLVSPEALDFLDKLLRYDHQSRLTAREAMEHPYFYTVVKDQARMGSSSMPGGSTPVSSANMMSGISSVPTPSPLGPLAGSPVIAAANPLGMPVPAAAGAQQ

`CC(C)(C)OC(=O)N(CCOCCO)c1ccn2ncc(-c3ccc(C#N)c(O)c3)c2n1` [compound 23, tert-Butyl N-[3-(4-cyano-3-hydroxyphenyl)pyrazolo[1,5-a]pyrimidin-5-yl]-N-[2-(2-hydroxyethoxy)ethyl]carbamate]: the half-inhibitory concentration (IC50) in assay [1] and in assay [2] was more than 50 µM in each case. Take `CC(C)(C)OC(=O)N1CCOCCOc2cc(ccc2C(=O)O)-c2cnn3ccc1nc23` [compound 32, 13-[(tert-Butoxy)carbonyl]-7,10-dioxa-13,17,18,21-tetraazatetracyclo[12.5.2.1^2,^6.0^17,^20]docosa-1(20),2,4,6(22),14(21),15,18-heptaene-5-carboxylic acid]: the IC50 in assay [3] is 7.39 µM.

Regarding `O=C(O)c1ccc2cc1OCCOCCNc1ccn3ncc-2c3n1` [compound 34, 7,10-Dioxa-13,17,18,21-tetraazatetracyclo[12.5.2.1^2,^6.0^17,^20]docosa-1(20),2,4,6(22),14(21),15,18-heptaene-5-carboxylic acid], the half-maximal inhibitory concentration (IC50) in assay [4] worked out at 5.7 µM; in assay [3], 16.2 µM.

What is called IC50 is the concentration that inhibits the measured activity by half.

(Values after doi:10.1101/2020.06.27.175109v1 (biorxiv, 2020).)
